# Measured values as given in ChEMBL document CHEMBL4609983, “Pan-specific and partially selective dye-labeled peptidic inhibitors of the polycomb paralog proteins” (Bioorg Med Chem, 2020).
# Active and inactive are the calls of the source. The calls are words filed in the database; no cut-off is given here. Non-standard residues stand in square brackets, D forms with d. Residues, ends and D or L forms follow the SMILES beside them. *: point of attachment. Biotin = O=C1N[C@H]2[C@H](CS[C@H]2CCCCC(=O)*)N1; Lys(Me3) = C[N+](C)(C)CCCC[C@H](N)C(=O)O; Benzoyl(4-Br) = O=C(c1ccc(Br)cc1)*
# Assays:
# [1] = target: T1, Testis-specific chromodomain protein Y 1 (Homo sapiens) (UniProt Q9Y6F8); assay: Binding affinity to recombinant human CDY1 by microarray based assay
# T1 sequence (whole entry): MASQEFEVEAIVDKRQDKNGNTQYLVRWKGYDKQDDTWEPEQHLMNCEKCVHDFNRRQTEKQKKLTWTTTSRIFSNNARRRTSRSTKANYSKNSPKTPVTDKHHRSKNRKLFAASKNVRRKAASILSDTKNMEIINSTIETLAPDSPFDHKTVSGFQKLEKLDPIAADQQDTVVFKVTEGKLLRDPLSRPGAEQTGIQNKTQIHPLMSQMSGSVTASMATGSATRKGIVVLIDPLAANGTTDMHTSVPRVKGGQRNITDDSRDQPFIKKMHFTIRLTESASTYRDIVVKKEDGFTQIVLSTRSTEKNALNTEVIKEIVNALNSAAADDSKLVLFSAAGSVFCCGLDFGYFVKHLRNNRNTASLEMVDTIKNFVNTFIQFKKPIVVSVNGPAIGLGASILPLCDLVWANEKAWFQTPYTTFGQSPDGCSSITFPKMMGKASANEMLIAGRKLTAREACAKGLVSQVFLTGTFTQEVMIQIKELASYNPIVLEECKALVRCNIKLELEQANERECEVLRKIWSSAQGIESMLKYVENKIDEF
# [2] = target: T2, Chromobox protein homolog 2 (Homo sapiens) (UniProt Q14781); assay: Binding affinity to recombinant human CBX2 by microarray based assay
# T2 sequence (whole entry): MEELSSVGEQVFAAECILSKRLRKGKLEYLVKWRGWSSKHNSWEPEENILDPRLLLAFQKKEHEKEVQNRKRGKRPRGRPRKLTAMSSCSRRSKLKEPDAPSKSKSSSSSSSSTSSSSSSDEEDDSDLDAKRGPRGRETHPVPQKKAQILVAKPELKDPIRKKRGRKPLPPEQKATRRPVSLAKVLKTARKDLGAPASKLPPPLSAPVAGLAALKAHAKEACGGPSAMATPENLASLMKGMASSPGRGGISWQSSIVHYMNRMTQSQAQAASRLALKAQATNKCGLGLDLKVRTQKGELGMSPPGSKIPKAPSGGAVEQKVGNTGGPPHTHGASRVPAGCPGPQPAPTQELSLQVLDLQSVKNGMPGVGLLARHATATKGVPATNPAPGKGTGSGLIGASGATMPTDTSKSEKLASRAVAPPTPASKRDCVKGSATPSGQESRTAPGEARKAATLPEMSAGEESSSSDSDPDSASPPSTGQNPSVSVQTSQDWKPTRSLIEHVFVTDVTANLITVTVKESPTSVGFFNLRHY
compound,measurement,setting,value
CC(C)C[C@H](NC(=O)[C@H](CO)NC(=O)[C@H](CCCC[N+](C)(C)C)NC(=O)[C@H](Cc1ccc(O)cc1)NC(=O)[C@H](C)NC(=O)[C@H](Cc1ccccc1)NC(=O)c1ccc(Br)cc1)C(=O)N[C@@H](CCCCNC(=O)CCCC[C@@H]1SC[C@@H]2NC(=O)N[C@@H]21)C(N)=O ({Benzoyl(4-Br)}-FAY[Lys(Me3)]SLK(Biotin)-NH2),Activity,[1],Active
same,Activity,[2],Active
